Experimental data from patent US10258603B2 (priority 2014, dated 2019).

Legend:
TAF1-BD2 = molecular target: T1, TAF1-BD2 (Homo sapiens, UniProt P21675); assay: TAF1-BD2 TR-FRET Binding Assay; conditions: Assay: TAF-1
T1 sequence (P21675 1525-1656): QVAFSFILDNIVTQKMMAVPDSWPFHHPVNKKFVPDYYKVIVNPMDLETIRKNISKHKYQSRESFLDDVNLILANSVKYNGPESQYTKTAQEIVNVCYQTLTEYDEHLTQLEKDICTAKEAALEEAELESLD
Method: Specifically, in a 384 well ProxiPlate TAF1-BD2 (6 nM final) was combined with biotin-ligand (50 nM final) in 50 mM HEPES (pH 7.5), 50 mM NaCl, 1 mM TCEP, 0.01% (w/v) BSA, and 0.008% (w/v) Brij-35 either in the presence of DMSO (final 0.2% DMSO) or compound dilution series in DMSO. After 10 minutes incubation at room temperature, a mixture Eu-W1024 Anti-6×His antibody (Perkin Elmer AD0110) and SureLight™ Allophycocyanin-Streptavidin (APC-SA, Perkin Elmer CR130-100) were added to a final concentrations of 0.2 nMolar antibody and 25 nMolar APC-SA, respectively. After twenty minutes of equilibration, the plates were read on an Envision instrument and IC50s calculated using a four parameter non-linear curve fit.

CECR2 = molecular target: T2, CECR2 (Homo sapiens, UniProt Q9BXF3); assay: CECR2 TR-FRET Binding Assay; conditions: read-out: IC50
T2 construct: 424-538 was cloned, expressed, and purified to homogeneity; Flag; made in house
Source text: IC50 Measurements for Inhibitors Using CECR2 TR-FRET Binding Assay

T2 sequence (Q9BXF3 424-538 limits assumed): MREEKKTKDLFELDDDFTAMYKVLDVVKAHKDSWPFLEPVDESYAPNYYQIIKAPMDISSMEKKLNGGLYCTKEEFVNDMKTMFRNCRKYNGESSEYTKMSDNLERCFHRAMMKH

Row | SMILES | IC50 (TAF1-BD2) [µM] | IC50 (CECR2) [µM]
1 | CC(C)N1CC[C@@H](NC(=O)c2cn(C)c(=O)c3[nH]ccc23)[C@H](F)C1 (relative stereo) [Example 209] | 0.58 | –
2 | CC(C)N1CC[C@H](NC(=O)c2cn(C)c(=O)c3[nH]ccc23)[C@H](C)C1 (relative stereo) [Example 238] | 2.1 | –
3 | CC(C)N1CC[C@H](NC(=O)c2cn(C)c(=O)c3[nH]ccc23)[C@H](F)C1 (relative stereo) [Example 240] | 3.4 | –
4 | CN1CCC(NC(=O)c2cn(C)c(=O)c3[nH]ccc23)CC1 [Example 4, 6-methyl-N-(1-methyl-4-piperidyl)-7-oxo-1H-pyrrolo[2,3-c]pyridine-4-carboxamide] | 0.32 | –
5 | CC=CCn1cc(C(=O)NCC2CN(C(=O)OC(C)(C)C)C2)c2cc[nH]c2c1=O [Example 10, tert-butyl 3-[[(6-but-2-enyl-7-oxo-1H-pyrrolo[2,3-c]pyridine-4-carbonyl)amino]methyl]azetidine-1-carboxylate] | 4.7 | –
6 | CC=CCn1cc(C(=O)NCCNC(C)=O)c2cc[nH]c2c1=O [Example 14, N-(2-acetamidoethyl)-6-but-2-enyl-7-oxo-1H-pyrrolo[2,3-c]pyridine-4-carboxamide] | 3.7 | –
7 | CC=CCn1cc(C(=O)NC(C)(C)C)c2cc[nH]c2c1=O [Example 15, 6-but-2-enyl-N-tert-butyl-7-oxo-1H-pyrrolo[2,3-c]pyridine-4-carboxamide] | 0.97 | –
8 | CC=CCn1cc(C(=O)NCCN2CCN(Cc3ccccc3)CC2)c2cc[nH]c2c1=O [Example 16, N-[2-(4-benzylpiperazin-1-yl)ethyl]-6-but-2-enyl-7-oxo-1H-pyrrolo[2,3-c]pyridine-4-carboxamide] | 6 | –
9 | CC=CCn1cc(C(=O)NCCCNC(=O)OCc2ccccc2)c2cc[nH]c2c1=O [Example 17, benzyl N-[3-[(6-but-2-enyl-7-oxo-1H-pyrrolo[2,3-c]pyridine-4-carbonyl)amino]propyl]carbamate] | 3.6 | –
10 | Cn1cc(C(=O)NCCC2CCN(CC(F)(F)F)CC2)c2cc[nH]c2c1=O [Example 20, 6-methyl-7-oxo-N-[2-[1-(2,2,2-trifluoroethyl)-4-piperidyl]ethyl]-1H-pyrrolo[2,3-c]pyridine-4-carboxamide] | 1.5 | –
11 | CN(C(=O)c1cn(C)c(=O)c2[nH]ccc12)C1CCN(Cc2ccccc2Cl)CC1 [Example 223] | – | 0.97
12 | CN(C(=O)c1cn(C)c(=O)c2[nH]ccc12)C1CCN(Cc2cccc(Cl)c2)CC1 [Example 224] | – | 0.78
13 | COCCN1CCC(N(C)C(=O)c2cn(C)c(=O)c3[nH]ccc23)CC1 [Example 225] | – | 1.4
14 | CN(C(=O)c1cn(C)c(=O)c2[nH]ccc12)C1CCN(CCC2CC2)CC1 [Example 226] | – | 0.7
15 | CCN(C(=O)c1cn(C)c(=O)c2[nH]ccc12)C1CCN(C(C)C)CC1 [Example 227] | – | 2
16 | CN(CC1CCN(CCC2CCCCC2)CC1)C(=O)c1cn(C)c(=O)c2[nH]ccc12 [Example 229] | – | 0.64
17 | CN(CC1CCN(CC2CCCOC2)CC1)C(=O)c1cn(C)c(=O)c2[nH]ccc12 (centres unmarked) [Example 230] | – | 0.79
18 | COCCCN1CCC(CN(C)C(=O)c2cn(C)c(=O)c3[nH]ccc23)CC1 [Example 232] | – | 1.2
19 | CN(CC1CCN(CC2CCC2)CC1)C(=O)c1cn(C)c(=O)c2[nH]ccc12 [Example 233] | – | 0.77
20 | CN(CC1CCN(CC2CCOCC2)CC1)C(=O)c1cn(C)c(=O)c2[nH]ccc12 [Example 234] | – | 1
21 | CC(C)N1CCCC(NC(=O)c2cn(C)c(=O)c3[nH]ccc23)CC1 (centres unmarked) [Example 241] | – | 1.1

Row | SMILES | IC50 (TAF1-BD2) [µM] | IC50 (CECR2) [µM]
22 | CC(C)N1C2CCC1CC(N(C)C(=O)c1cn(C)c(=O)c3[nH]ccc13)C2 (centres unmarked) [Example 242] | – | 1.4
23 | CC(C)N1CCC(N(C(=O)c2cn(C)c(=O)c3[nH]ccc23)C2CC2)CC1 [Example 243] | – | 2
24 | C=CCn1cc(C(=O)N(C)[C@H]2[C@@H]3CN(c4ccnc(C#N)n4)C[C@@H]32)c2cc[nH]c2c1=O [Example 249, 6-allyl-N-[(1S,5R)-3-(2-cyanopyrimidin-4-yl)-3-azabicyclo[3.1.0]hexan-6-yl]-N-methyl-7-oxo-1H-pyrrolo[2,3-c]pyridine-4-carboxamide] | – | 4.8
25 | C=CCn1cc(C(=O)N(C)C2C3CN(c4ccncn4)CC32)c2cc[nH]c2c1=O (centres unmarked) [Example 251] | – | 6.2
26 | CN(C(=O)c1cn(C)c(=O)c2[nH]ccc12)C1CCN(CCc2ccccc2F)CC1 [Example 253] | – | 0.98
27 | CN(C(=O)c1cn(C)c(=O)c2[nH]ccc12)C1CCN(CCc2ccc(Cl)cc2)CC1 [Example 254] | – | 0.7
28 | C=CCn1cc(C(=O)N(C)C2CCN(c3cc(C4CC4)nc(C)n3)CC2)c2cc(C)[nH]c2c1=O [Example 266] | – | 0.03
29 | C=CCn1cc(C(=O)N(C)C2CCN(c3cc(C)nc(C4CC4)n3)CC2)c2cc(C)[nH]c2c1=O [Example 267, 6-allyl-N-(1-(2-cyclopropyl-6-methylpyrimidin-4-yl)piperidin-4-yl)-N,2-dimethyl-7-oxo-6,7-dihydro-1H-pyrrolo[2,3-c]pyridine-4-carboxamide] | – | 0.017
30 | C=CCn1cc(C(=O)N(C)C2CCN(c3cc(-c4cccnc4C)ncn3)CC2)c2cc(C)[nH]c2c1=O [Example 268, 6-allyl-N,2-dimethyl-N-[1-[6-(2-methyl-3-pyridyl)pyrimidin-4-yl]-4-piperidyl]-7-oxo-1H-pyrrolo[2,3-c]pyridine-4-carboxamide] | – | 0.023
31 | C=CCn1cc(C(=O)N(C)C2CCN(c3cc(-c4ccco4)ncn3)CC2)c2cc(C)[nH]c2c1=O [Example 269] | – | 0.033
32 | C=CCn1cc(C(=O)N(C)C2CCN(c3cc(-c4ccccc4Cl)ncn3)CC2)c2cc(C)[nH]c2c1=O [Example 270] | – | 0.018
33 | C=CCn1cc(C(=O)N(C)C2CCN(c3cc(-c4ccccn4)ncn3)CC2)c2cc(C)[nH]c2c1=O [Example 271, 6-allyl-N,2-dimethyl-7-oxo-N-[1-[6-(2-pyridyl)pyrimidin-4-yl]-4-piperidyl]-1H-pyrrolo[2,3-c]pyridine-4-carboxamide] | – | 0.011
34 | C=CCn1cc(C(=O)N(C)C2CCN(c3cc(-c4ncccc4C)ncn3)CC2)c2cc(C)[nH]c2c1=O [Example 272] | – | 0.035
35 | C=CCn1cc(C(=O)N(C)C2CCCc3ccccc32)c2cc(C)[nH]c2c1=O (centres unmarked) [Example 275, 6-allyl-N,2-dimethyl-7-oxo-N-tetralin-1-yl-1H-pyrrolo[2,3-c]pyridine-4-carboxamide] | – | 0.11
36 | C=CCn1cc(C(=O)N(C)C2CCCc3ncccc32)c2cc(C)[nH]c2c1=O (centres unmarked) [Example 276] | – | 0.038
37 | C=CCn1cc(C(=O)N(C)C2CCOc3ccccc32)c2cc(C)[nH]c2c1=O (centres unmarked) [Example 277] | – | 0.053
38 | C=CCn1cc(C(=O)N(C)C2CCOc3cc(F)ccc32)c2cc(C)[nH]c2c1=O (centres unmarked) [Example 278] | – | 0.057
39 | C=CCn1cc(C(=O)N(C)C2CCCc3cnccc32)c2cc(C)[nH]c2c1=O (centres unmarked) [Example 283, 6-allyl-N,2-dimethyl-7-oxo-N-(5,6,7,8-tetrahydroisoquinolin-5-yl)-1H-pyrrolo[2,3-c]pyridine-4-carboxamide] | – | 0.044
40 | C=CCn1cc(C(=O)N(C)C2CCCc3ccc(F)cc32)c2cc(C)[nH]c2c1=O (centres unmarked) [Example 284] | – | 0.053
41 | C=CCn1cc(C(=O)N(C)C2CCCc3c(C)cccc32)c2cc(C)[nH]c2c1=O (centres unmarked) [Example 285] | – | 0.15
